Test results from patent US11091486B2, “Process for the preparation of pyrazolo[1,5-a]pyrimidines and salts thereof” (Array BioPharma Inc., priority 2016, dated 2021).

Key:
[1] = Thermodynamic aqueous solubility of a crystalline solid (Example 33); format: physicochemical; conditions: aqueous phosphate buffer, thermodynamic from solid, pH 6.5 buffer, 24 hours at room temperature
Procedure: General method to measure the thermodynamic aqueous solubility of a crystalline, organic solid.
To make a 0.03 M (30 mM) Phosphate Buffer (25° C.) at pH 7.4, the above recipe was adjusted as follows: 6.72 mL of 1 M potassium phosphate (monobasic) were mixed with 23.28 mL of 1 M potassium phosphate (dibasic) and diluted to one liter with water. The pH was adjusted with HCl or NaOH. Alternatively, 0.9144 g (6.72×10^−3 mol) of potassium phosphate monobasic were mixed with 4.0908 g (23.28×10^−3 mol) of potassium phosphate dibasic and diluted to 1 L with water to get a 30 mM solution of Phosphate Buffer (25° C.).
2. Aqueous phosphate buffer, 30 mM, adjusted to pH 6.5
1. ˜0.5 mg of compound were dissolved in 2.5% DMSO/MeOH (or other organic) to a final concentration of 250 μg/mL stock
• 1. ≥0.5 mg of compound were accurately weighed into a 4-mL vial for each pH to be tested. • 2. The appropriate amount of desired buffer was added to the appropriate vials to get a resulting concentration of 1.02 mg/mL. • 3. Vials were capped and shaken at 350 rpm for 24 hours at room temperature. • 4. ˜450 μL of sample solutions were pipetted from 4-mL vials into 96 DWP. • 5. The plate was centrifuged at 3500 rpm for 10 minutes at 20° C. and 250 μL of supernatant were transferred to catch plate. • 6. […]
4. The model was used to quantify the amount of compound in the aqueous solutions. […]

[2] = system: Cryopreserved human hepatocytes; assay: In vitro metabolic stability in human hepatocytes (Example 34); format: in vitro ADME; conditions: 1 μM, predicted hepatic extraction ratio
Procedure: In vitro metabolic stabilities were studied at a concentration of 1 μM in the presence of liver microsomes and isolated hepatocytes.
A stock solution of the test compound was prepared at 10 mM (active compound) in DMSO. The in vitro stability of the test compound (1 μM) was assessed in the presence of hepatocytes as follows. Cryopreserved hepatocytes were thawed, isolated from shipping media and diluted to a density of 1×10^6 viable cells/mL, according to the supplier's guidelines, using Dulbecco's Modified Eagle Medium, 1×, high glucose (DMEM, Invitrogen, Carlsbad, Calif.). Viability was determined by trypan blue exclusion using a hemocytometer (3500 Hausser, VWR, West Chester, Pa.). […]
Data were acquired and peak areas were calculated for test compounds and the internal standard using Analyst 1.6.1 software (Sciex). […]
All calculations were performed using BioAssay Enterprise. The mean peak area ratios were calculated by averaging the peak area ratios (n=2) of test compound and the internal standard for each sample. Percent remaining was calculated by determining the ratio of the peak area ratio at each time point to the peak area ratio of the time-zero samples. The rate of loss of test compound (km) was determined by linear regression of—1n(f(t)) versus time. […] The t½ was determined dividing 1n(2) by km. […]

hERG = target: T1, hERG (Homo sapiens, UniProt Q12809); assay: hERG ChanTest Fast Patch assay; format: cell-based
T1 construct: Charles River Laboratories International, Inc. (ChanTest assay service)
T1 sequence (Q12809 whole entry): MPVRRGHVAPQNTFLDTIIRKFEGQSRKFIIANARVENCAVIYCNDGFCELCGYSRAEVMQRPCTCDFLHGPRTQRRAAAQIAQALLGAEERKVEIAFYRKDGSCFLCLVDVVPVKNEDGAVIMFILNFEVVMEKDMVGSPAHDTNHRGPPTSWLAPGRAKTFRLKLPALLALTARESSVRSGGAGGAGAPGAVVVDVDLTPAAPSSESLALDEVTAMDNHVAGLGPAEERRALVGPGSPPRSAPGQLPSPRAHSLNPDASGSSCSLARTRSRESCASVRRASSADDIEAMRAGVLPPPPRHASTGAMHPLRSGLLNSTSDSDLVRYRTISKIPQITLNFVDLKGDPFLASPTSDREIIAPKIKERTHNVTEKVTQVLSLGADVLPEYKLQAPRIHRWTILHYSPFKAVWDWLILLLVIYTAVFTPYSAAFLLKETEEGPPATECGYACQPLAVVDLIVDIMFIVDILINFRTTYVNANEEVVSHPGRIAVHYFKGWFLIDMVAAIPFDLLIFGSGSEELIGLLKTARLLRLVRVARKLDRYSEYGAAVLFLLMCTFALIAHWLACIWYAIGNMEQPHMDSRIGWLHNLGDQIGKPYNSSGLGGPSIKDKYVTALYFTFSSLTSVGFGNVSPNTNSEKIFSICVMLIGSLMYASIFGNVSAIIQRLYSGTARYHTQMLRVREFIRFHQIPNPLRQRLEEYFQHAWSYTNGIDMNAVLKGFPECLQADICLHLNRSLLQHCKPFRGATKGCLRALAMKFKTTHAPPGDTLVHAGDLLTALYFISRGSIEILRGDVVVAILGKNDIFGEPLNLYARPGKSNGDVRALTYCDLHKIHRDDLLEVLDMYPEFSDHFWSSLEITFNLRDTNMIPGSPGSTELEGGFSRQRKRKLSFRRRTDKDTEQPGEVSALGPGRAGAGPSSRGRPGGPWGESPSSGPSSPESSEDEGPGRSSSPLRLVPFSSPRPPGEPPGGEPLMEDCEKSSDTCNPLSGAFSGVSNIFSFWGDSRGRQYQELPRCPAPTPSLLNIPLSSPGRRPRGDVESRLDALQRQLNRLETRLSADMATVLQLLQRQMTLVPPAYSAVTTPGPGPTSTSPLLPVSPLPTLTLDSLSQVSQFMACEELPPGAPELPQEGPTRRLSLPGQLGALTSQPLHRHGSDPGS
Procedure: The MDR1 efflux protocol is disclosed in Example 35 hereinbelow. The hERG IC50 values were measured using the ChanTest Fast Patch assay, available from Charles River Laboratories International, Inc. (http://www.criver.com/products-services/drug-discovery/cap abilities/ion-channel/selectivity-profiling).

| SMILES | solubility at 24 h [1] [µg/mL] | Human Hepatocyte Clearance (% ER) [2] [% ER] | IC50 (hERG) [µM] |
| --- | --- | --- | --- |
| C[C@@H]1CCc2ncc(F)cc2[C@H]2CCCN2c2ccn3ncc(c3n2)C(=O)N1 [Formula I] | 111 | 48 | 27 |
| C[C@H]1CCc2ncc(F)cc2[C@H]2CCCN2c2ccn3ncc(c3n2)C(=O)N1 [formula I′] | 43 | 74 | 9 |
